{
  "source": "patent US5958407A",
  "about": "“Ileus treatment method” (The Regents of the Uinversity of California, priority 1998, dated 1999)",
  "key": {"tryptase [1]": {"biological_target": "T1, tryptase (Homo sapiens, UniProt Q15661)", "T1 sequence (Q15661 31-275)": "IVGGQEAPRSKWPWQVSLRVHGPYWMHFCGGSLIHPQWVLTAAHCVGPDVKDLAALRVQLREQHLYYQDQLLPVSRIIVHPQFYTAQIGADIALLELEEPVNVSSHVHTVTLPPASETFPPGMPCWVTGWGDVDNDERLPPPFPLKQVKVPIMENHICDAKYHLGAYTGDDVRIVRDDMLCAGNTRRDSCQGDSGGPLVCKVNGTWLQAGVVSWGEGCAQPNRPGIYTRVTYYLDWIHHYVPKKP", "experiment": "Inhibition of the Ca2+ response of myocytes to HMC-1 mast cell filtrate", "assay_type": "cell-based", "set-up": "HMC-1 human mast cells; endogenous in cells; host or cells: HMC-1 human mast cells, filtrate after degranulation with substance P", "method": "(§1) Degranulation of HMC-1 cells (human mast cell line) with substance P was induced, and a filtrate for Ca^2+ responses in myocytes was assessed, to determine if mast cells release proteases that cleave and activate PAR-2.\n(§2) Myocytes were incubated in physiological salt solution (PSS) with 2.5 μM Fura-2/AM for 20 min at 37° C. Fluorescence was measured in individual cells using an ICCD video camera (Stanford Photonics, Stanford, Calif.) and a video microscopy acquisition program (Axon Industries, Foster City, Calif.). Fluorescence was measured at 340 and 380 nm excitation and 510 nm emission. The ratio of the fluorescence at the two excitation wavelengths, which is proportional to the [Ca^2+ ]i, was calculated. Fresh cells were studied with each agonist and a minimum of 10 cells analyzed in 2-4 experiments on different days.\nHMC-1 human mast cells (300 μl of 7×10^6 /ml in PSS containing 25 μg/ml heparin) were incubated with 100 μM substance P for 5 min at room temperature to induce degranulation. The suspension was filtered and assayed for stimulation of Ca^2+ mobilization."}, "tryptase [2]": {"biological_target": "T1, tryptase", "experiment": "Ca2+ response of myocytes to tryptase pre-incubated with inhibitor", "assay_type": "cell-based", "method": "as §2"}, "tryptase [3]": {"biological_target": "T1, tryptase", "settings": "cited from earlier work"}, "[4]": {"tested_on": "strips of rat proximal colon"}, "[5]": {"tested_on": "mice with cecal manipulation", "experiment": "GI transit in mice with surgically induced ileus", "assay_type": "in vivo", "settings": "1 mg/kg orally 30 minutes prior to anesthesia", "method": "GI transit was measured in fed mice by oral gavage pf 0.3 ml carmine red in methylcellulose. Whole GI transit time was defined as the appearance of the first red fecal pellet. Upper GI transit time was defined as the appearance as the percentage of the distance traveled along the small intestine by the marker in 30 minutes. Cecal manipulation for 5 minutes or skin incision alone was performed under halothane anesthesia and the marker administered 1 hour after surgery.\nSkin incision alone had little effect on transit time."}, "PAR-2": {"biological_target": "T2, PAR-2 (Rattus norvegicus, UniProt Q63645)", "T2 construct": "endogenous in cells; host or cells: cultured colonic myocytes (rat)", "T2 sequence (Q63645 26-397)": "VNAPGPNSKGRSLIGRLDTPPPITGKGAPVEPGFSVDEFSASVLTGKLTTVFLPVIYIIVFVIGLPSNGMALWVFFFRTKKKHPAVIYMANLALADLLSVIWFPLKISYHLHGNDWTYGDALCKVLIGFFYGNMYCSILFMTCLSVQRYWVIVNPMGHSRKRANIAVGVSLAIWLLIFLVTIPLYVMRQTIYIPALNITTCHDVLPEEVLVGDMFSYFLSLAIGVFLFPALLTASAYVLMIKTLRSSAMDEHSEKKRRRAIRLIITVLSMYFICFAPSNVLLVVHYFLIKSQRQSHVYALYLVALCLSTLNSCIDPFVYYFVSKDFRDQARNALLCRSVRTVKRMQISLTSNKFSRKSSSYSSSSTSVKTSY", "experiment": "Ca2+ mobilization by colonic myocytes (Fura-2)", "assay_type": "cell-based", "settings": "for EC50: read-out: EC50, increase in [Ca2+]i", "method": "Ac. Ca^2+ Mobilization by Colonic Myocytes. The activation of PAR-2 in myocytes was assessed by measuring Ca^2+ mobilization, as described in Example 3.\nas §1, §2"}, "trypsin": {"tested_on": "trypsin", "experiment": "Ca2+ response of myocytes to trypsin pre-incubated with inhibitor", "assay_type": "cell-based", "settings": "1 nM trypsin; 10 mg/ml SBTI, 60 min at 37° C. before assay", "method": "Ac. Ca^2+ Mobilization by Colonic Myocytes. The activation of PAR-2 in myocytes was assessed by measuring Ca^2+ mobilization, as described in Example 3. Trypsin and AP (SLIGRL-NH2) stimulated a prompt increase in [Ca^2+ ]i.\nas §2"}},
  "note": "Values joined by “and” are separate entries in the source; they are usually repeats but may differ in a detail not shown here. Equal values may be shown once. Read-outs that look alike come from different tables or passages of the source. No end group written: not given here.",
  "data": [
    {"molecule": "N=C(N)c1ccc2nc(Cc3nc4ccc(C(=N)N)cc4[nH]3)[nH]c2c1", "note": "[BABIM, bis(5-amidino-2-benzimidazolyl) methane]", "values": [
      {"measurement": "inhibition of the [Ca2+]i response to HMC-1 mast cell filtrate", "setting": "tryptase [1]", "result": "46.5±1% and ~ 50%"},
      {"measurement": "Ca2+ response to tryptase after pre-incubation with inhibitor", "setting": "tryptase [2]", "result": "no Ca^2+ response"}
    ]},
    {"molecule": "CC(C)(C)c1ccc(OC(=O)[C@H]2CC[C@H](CNC(=N)N)CC2)cc1", "note": "[GMCHA-OPhBut, trans-4-guanidinomethylcyclohexane-carboxylic acid 4-tert butylphenyl ester]", "values": [
      {"measurement": "concentrations that inhibit tryptase activity", "setting": "tryptase [3]", "result": "1 to 100", "unit": "µM"}
    ]},
    {"molecule": "COC(=O)[C@@H](N)CCCNC(=N)N[N+](=O)[O-]", "note": "[L-NAME, L-N^G -nitro arginine methyl ester]", "values": [
      {"measurement": "effect of pre-incubation on the effects of trypsin and AP", "setting": "[4]; 100 μM L-NAME for 15 min", "result": "did not prevent"}
    ]},
    {"molecule": "CCCCC[C@H](O)/C=C/[C@H]1[C@H](O)CC(=O)[C@@H]1C/C=C\\CCCC(=O)O", "note": "[PGE2]", "values": [
      {"measurement": "effect on colonic motility", "setting": "[4]; 30 nM PGE2", "result": "inhibited colonic motility"}
    ]},
    {"molecule": "COc1ccc2c(c1)c(CC(=O)O)c(C)n2C(=O)c1ccc(Cl)cc1", "note": "[indomethacin]", "values": [
      {"measurement": "effect of pre-incubation on the response to trypsin and AP", "setting": "[4]; 1 μM indomethacin for 15 min", "result": "had no effect"}
    ]},
    {"molecule": "CN1CCC(=C2c3ccccc3CC(=O)c3sccc32)CC1", "note": "[ketotifen]", "values": [
      {"measurement": "effect on inhibition of GI transit produced by abdominal surgery", "setting": "[5]; cecal manipulation", "result": "partially reversed"},
      {"measurement": "effect on transit time in unoperated animals", "setting": "[5]; unoperated", "result": "little effect"}
    ]},
    {"molecule": "CC(=O)N[C@@H](CC(C)C)C(=O)N[C@@H](CC(C)C)C(=O)N[C@H](C=O)CCCNC(=N)N", "note": "[leupeptin]", "values": [
      {"measurement": "inhibition of the [Ca2+]i response to HMC-1 mast cell filtrate", "setting": "tryptase [1]; myocytes, filtrate of HMC-1 cells degranulated with substance P", "result": "46.5±4", "unit": "%"},
      {"measurement": "Ca2+ response to tryptase after pre-incubation with inhibitor", "setting": "tryptase [2]; 40 nM tryptase, 1 μM inhibitor, 5 min at room temperature before assay", "result": "no Ca^2+ response"}
    ]},
    {"molecule": "NC1=N[C@H](O)[C@H]2[C@H]3O[C@]4(O)O[C@@H]([C@@H](O)[C@@]2(N1)[C@@H]4O)[C@]3(O)CO", "note": "[tetrodotoxin]", "values": [
      {"measurement": "effect on amplitude and frequency of contractions", "setting": "[4]", "result": "immediate and sustained increase"}
    ]},
    {"molecule": "HOE-140", "values": [
      {"measurement": "effect on bradykinin-induced inhibition of spontaneous contractions", "setting": "[4]; 100 nM bradykinin, pre-incubation with 100 nM HOE-140 for 5 min", "result": "abolished"},
      {"measurement": "effect on the inhibition of colonic motility by trypsin and AP", "setting": "[4]; HOE-140", "result": "had no effect"}
    ]},
    {"molecule": "RPPGFSPFR [bradykinin]", "values": [
      {"measurement": "effect on spontaneous contractions", "setting": "[4]; 100 nM bradykinin", "result": "marked inhibition of spontaneous contractions"}
    ]},
    {"molecule": "SLIGRL-NH2 [AP, SLIGRL-NH2]", "values": [
      {"measurement": "EC50", "setting": "PAR-2; colonic myocytes", "result": "~1000", "unit": "nM"}
    ]},
    {"molecule": "substance P: used to induce degranulation of HMC-1 mast cells", "values": [
      {"measurement": "Ca2+ mobilization in myocytes", "setting": "PAR-2; 100 μM substance P", "result": "did not stimulate"}
    ]},
    {"molecule": "tryptase: mast cell protease released upon degranulation", "values": [
      {"measurement": "effect on amplitude of spontaneous contractions", "setting": "[4]; tryptase at concentrations of up to 90 nM", "result": "did not alter the amplitude of spontaneous contractions"},
      {"measurement": "EC50", "setting": "PAR-2; colonic myocytes", "result": "~100", "unit": "nM"},
      {"measurement": "fold less potent than trypsin (Ca2+ mobilization)", "setting": "PAR-2; colonic myocytes, tryptase vs trypsin", "result": 100, "unit": "fold"}
    ]},
    {"molecule": "SBTI: SBTI, pre-incubated with trypsin before assay; abbreviation not expanded (protein, UniProt P01070 25-205, looked up) Trypsin inhibitor A: DFVLDNEGNPLENGGTYYILSDITAFGGIRAAPTGNERCPLTVVQSRNELDKGIGTIISSPYRIRFIAEGHPLSLKFDSFAVIMLCVGIPTEWSVVEDLPEGPAVKIGENKDAMDGWFRLERVSDDEFNNYKLVFCPQQAEDDKCGDIGISIDHDDGTRRLVVSKNKPLVVQFQKLDKESL", "values": [
      {"measurement": "Ca2+ response to trypsin after pre-incubation with inhibitor", "setting": "trypsin", "result": "no Ca^2+ response"}
    ]},
    {"molecule": "trypsin: protease that cleaves and activates PAR-2 (protein, UniProt P00760 24-246, looked up) Serine protease 1: IVGGYTCGANTVPYQVSLNSGYHFCGGSLINSQWVVSAAHCYKSGIQVRLGEDNINVVEGNEQFISASKSIVHPSYNSNTLNNDIMLIKLKSAASLNSRVASISLPTSCASAGTQCLISGWGNTKSSGTSYPDVLKCLKAPILSDSSCKSAYPGQITSNMFCAGYLEGGKDSCQGDSGGPVVCSGKLQGIVSWGSGCAQKNKPGVYTKVCNYVSWIKQTIASN", "values": [
      {"measurement": "effect on motility of tetrodotoxin-treated tissues", "setting": "[4]", "result": "inhibited this elevated motility"},
      {"measurement": "fold more potent than AP (colonic motility)", "setting": "[4]", "result": 10, "unit": "fold"},
      {"measurement": "time to recovery of spontaneous activity after washing", "setting": "[4]; 1 μM trypsin for 5 min, then washed extensively", "result": "> 6", "unit": "h"},
      {"measurement": "inhibition of mean amplitude at highest concentration", "setting": "[4]; 3 μM trypsin", "result": 60, "unit": "%"},
      {"measurement": "threshold for inhibition of mean amplitude of spontaneous contractions", "setting": "[4]; colon strips (mucosa plus muscle)", "result": 300, "unit": "nM"},
      {"measurement": "effect on spontaneous contractions in the absence of the mucosa", "setting": "[4]; colonic strips with mucosa removed", "result": "inhibited spontaneous contractions"},
      {"measurement": "EC50", "setting": "[4]; read-out: EC50, reduction in mean amplitude of spontaneous contractions, colon strips (mucosa plus muscle)", "result": "~500", "unit": "nM"},
      {"measurement": "delay before inhibition of motility", "setting": "[4]; trypsin at 1 μM, AP concentration not stated", "result": "31 ± 5", "unit": "s"},
      {"measurement": "fold more potent than AP (Ca2+ mobilization)", "setting": "PAR-2", "result": "1,000 fold"},
      {"measurement": "EC50", "setting": "PAR-2; colonic myocytes", "result": "~1", "unit": "nM"}
    ]}
  ]
}
